Where a name gives a salt, the structure may show the parent alone.

For assay [1], the system named is P388 lymphocytic leukemia. Kind of assay: Growth inhibition of tumor cells of P388 lymphocytic leukemia in vitro. The assay is classed as cell-based, mouse (CDF1). The conditions noted are these: Mus musculus, 48 hours at 37° C., read-out: 50% Inhibitory concentration of cell growth (IC50). How it is done: (I) Growth Inhibition of Tumor Cells of P388 Lymphocytic Leukemia in Vitro:
Tumor cells were collected aseptically with capillary tube from ascites in CDF1 female mice transplanted intraperitoneally with 1×10^6cells of P388 lymphocytic leukemia 5 days before. Cell suspension was prepared at 5×10^4 cells/0.5 ml in a RPMI1640 medium supplemented with 10% fetal calf serum, kanamycin (0.1 mg/ml) and 2-hydroxyethyldisulfide (0.01 mM). Each test sample was dissolved or suspended in the medium at a concentration of 1×10^-1 -1×10^-5 mM.
A test tube with Molton stopper loosely involving 0.5 ml each of the cell suspension and the sample suspension was kept for 48 hours at 37° C. in an incubator supplied with air containing 5% carbon dioxide. […] The cells harvested therefrom was counted by using of a Coulter Counter and the inhibition of cell growth was calculated by the following formula:
Growth Inhibition (%)=(1-T/C)×100
T: number of cells in the culture containing test sample
C: number of cells in the culture of control

For assay [2], the system named is P388 lymphocytic leukemia. In words: Increase in life span on P388 lymphocytic leukemia tumor-transplanted mouse. The assay is classed as in vivo, mouse (CDF1). The conditions noted are these: P388, ip, 24 h, intraperitoneal, day 1 and 5th day after transplantation, read-out: Rate of increase in life span (ILS); for ILS at 2.2 mg/kg: daily dose 2.2 mg/kg; for ILS at 2.5 mg/kg: daily dose 2.5 mg/kg; for ILS at 3 mg/kg: daily dose 3.0 mg/kg. Here is the method:
(III) Increase in Life Span on P388 Lymphocytic Leukemia Tumor-transplantedMouse:
The treated group to which the test sample was administered consisted of seven mice, while the control group consisted of ten mice. Six weeks old male mice (CDF1, 25±2 g of body weight) were employed as host animals.
Tumor cells (1.0×10^6) of P388 lymphocytic leukemia were transplanted intraperitoneally into each mouse. The treatment was effected one day after the transplantation and on 5th day by administering prescribed dose of each test sample intraperitoneally to the mice.
Antitumor activity of the test sample was evaluated by the rate of increase in life span (ILS) which was calculated with the following formula.
T': median survival time of treated mice
C': median survival time of control mice

The subject of assay [3] is V79 cells. In words: Inhibitory effect on colony formation of V79 cells in vitro. The assay is classed as cell-based, Chinese hamster. The conditions noted are these: Cricetulus griseus, 96 hours with sample, read-out: 90% inhibitory concentration (IC90). How it is done:
(II) Inhibitory effect on Colony Formation of V79 Cells in Vitro:
V79 cells established from Chinese hamster lung fibroblastoma were cultured routinely on plastic dishes (.phi. 60 mm) in RPMI 1640 medium supplemented with 10% fetal calf serum and kanamycin (0.1 mg/ml). Each confluent culture was then trypsinized by the addition of 1 ml of trypsin-EDTA solution (supplied by the firm GIBCO) for 5 minutes at 37° C. in an incubator supplied with humidified air containing 5% CO2.
Homogeneous suspension of V79 cells thus obtained was diluted to 100, 200 and 400 viable cells/ml with the medium, and 1 ml each of them was transferred to other plastic dishes (.phi. 60 mm) containing 1.85 ml of the medium, and diluted to 100, 200 and 400 viable cells/dish.
Each test sample was dissolved in DMSO at the concentration of 20 mM and diluted with the medium to the final concentration of 2×10^-3 -2×10^-10 mM.
Each test dish was kept for 24 hours at 37° C. in an incubator supplied with humidified air containing 5% CO2, and was further cultured for 96 hours after 150 μl of the sample solution was added thereto.
The cells were gently washed once with Mg- and Ca-free phosphate-buffered saline [PBS(-)] and fixed with 1 ml of 3.5% HCHO-PBS(-) solution for 2 hours, then stained with a crystal violet ethanol solution.
The 90% inhibitory concentration (IC90) was calculated by comparing the number of visible colonies on the sample dish with that on the control dish.

Consider `CC(C(C)N1CC(=O)N(COC(=O)C=Cc2cccc(Cl)c2)C(=O)C1)N1CC(=O)N(COC(=O)C=Cc2cccc(Cl)c2)C(=O)C1` (stereo not drawn) [Sample 4, meso-2,3-bis[4-(3-chlorocinnamoyloxymethyl)-3,5-dioxopiperazin-1-yl]butane], for which the IC50 in assay [1] came out at 240 nM.
As a reminder, the ILS is the gain in survival time of treated over control animals, in per cent. On to `C[C@H]([C@H](C)N1CC(=O)N(COC(=O)c2ccco2)C(=O)C1)N1CC(=O)NC(=O)C1` (relative stereo) [Sample 18, erythro-2-[4-(2-furoyloxymethyl)-3,5-dioxopiperazin-1-yl]-3-(3,5-dioxopiperazin-1-yl)butane], for which the ILS at 2.2 mg/kg in assay [2] was 185%. The IC50 in assay [1] came out at 42 nM. Moreover, in assay [3], the IC90 stood at 0.1 nM.
Turning to `C[C@H]([C@H](C)N1CC(=O)N(COC(=O)Cc2ccccc2Cl)C(=O)C1)N1CC(=O)NC(=O)C1` (relative stereo) [Sample 10, erythro-2-[4-(2-chlorophenylacetoxymethyl)-3,5-dioxopiperazin-1-yl]-3-(3,5-dioxopiperazin-1-yl)butane], the ILS at 2.5 mg/kg in assay [2] was 162%. For the same molecule, the IC50 in assay [1] was 7.1 nM. The IC90 in assay [3] is 0.073 nM.
Regarding `C[C@H]([C@H](C)N1CC(=O)N(COC(=O)[C@H](NC(=O)OC(C)(C)C)c2ccccc2)C(=O)C1)N1CC(=O)N(COC(=O)[C@H](NC(=O)OC(C)(C)C)c2ccccc2)C(=O)C1` [Sample 5, meso-2,3-bis[4-[(R)-2-N-tert-butoxycarbonylamino-2-phenylacetoxymethyl]-3,5-dioxopiperazin-1-yl]butane], the IC50 in assay [1] turned out to be 32 nM.
On the same count and under the same terms, the value for `CC(=O)OCN1C(=O)CN([C@@H](C)[C@@H](C)N2CC(=O)NC(=O)C2)CC1=O` (relative stereo) [Sample 9, erythro-2-(4-acetoxymethyl-3,5-dioxopiperazin-1-yl)-3-(3,5-dioxopiperazin-1-yl)butane] was 74 nM.
In the case of `C[C@H]([C@H](C)N1CC(=O)N(COC(=O)OCc2ccccc2)C(=O)C1)N1CC(=O)N(COC(=O)OCc2ccccc2)C(=O)C1` [Sample 17, meso-2,3-bis(4-benzyloxycarbonyloxymethyl-3,5-dioxopiperazin-1-yl)butane], the increase in lifespan (ILS) at 3.2 mg/kg in assay [2] (daily dose 3.2 mg/kg) stood at 179%. Moreover, the IC50 in assay [1] is 56 nM.
Take `C[C@H]([C@H](C)N1CC(=O)N(COC(=O)COc2ccc(Cl)cc2Cl)C(=O)C1)N1CC(=O)NC(=O)C1` (relative stereo) [Sample 11, erythro-2-[4-(2,4-dichlorophenoxyacetoxymethyl)-3,5-dioxopiperazin-1-yl]-3-(3,5-dioxopiperazin-1-yl)butane]: the ILS at 2.7 mg/kg in assay [2] (daily dose 2.7 mg/kg) came out at 132%. For the same molecule, in assay [1], the IC50 amounted to 77 nM. Moreover, the IC90 in assay [3] worked out at 0.082 nM.
In the case of `C[C@H]([C@H](C)N1CC(=O)N(COC(=O)c2ccccc2)C(=O)C1)N1CC(=O)N(COC(=O)c2ccccc2)C(=O)C1` [Sample 16, meso-2,3-bis(4-benzoyloxymethyl-3,5-dioxopiperazin-1-yl)butane], the ILS at 3 mg/kg in assay [2] amounted to 150%. Besides, the IC50 in assay [1] came to 250 nM. In addition, the IC90 in assay [3] stood at 0.098 nM.
For `C[C@H]([C@H](C)N1CC(=O)N(COC(=O)c2ccccc2)C(=O)C1)N1CC(=O)NC(=O)C1` (relative stereo) [Sample 13, erythro-2-(4-benzoyloxymethyl-3,5-dioxopiperazin-1-yl)-3-(3,5-dioxopiperazin-1-yl)butane], in assay [2], the ILS at 2.2 mg/kg came out at 118%. Further, in assay [1], the IC50 came out at 38 nM.
Turning to `C[C@H]([C@H](C)N1CC(=O)N(COC(=O)[C@H](N)c2ccccc2)C(=O)C1)N1CC(=O)N(COC(=O)[C@H](N)c2ccccc2)C(=O)C1` [Sample 6, meso-2,3-bis[4-[(R)-2-amino-2-phenylacetoxymethyl]-3,5-dioxopiperazin-1-yl]butane trifluoroacetate], the IC50 in assay [1] turned out to be 52 nM.
For `C[C@H]([C@H](C)N1CC(=O)N(COC(=O)OCc2ccc([N+](=O)[O-])cc2)C(=O)C1)N1CC(=O)NC(=O)C1` (relative stereo) [Sample 15, erythro-2-[4-(4-nitrobenzyloxycarbonyloxymethyl)-3,5-dioxopiperazin-1-yl]-3-(3,5-dioxopiperazin-1-yl)butane], in assay [2] (daily dose 2.6 mg/kg), the ILS at 2.6 mg/kg is 177%. Moreover, in assay [1], the IC50 amounted to 240 nM.
Regarding `CC(C)COC(=O)OCN1C(=O)CN(CCN2CC(=O)N(COC(=O)OCC(C)C)C(=O)C2)CC1=O` [Sample A, 1,2-bis(4-isobutoxycarbonyloxymethyl-3,5-dioxopiperazin-1-yl)ethane, reference compound], the ILS at 3 mg/kg in assay [2] is 5%. Besides, in assay [2] (daily dose 250 mg/kg (*Adequate dose)), the ILS at 250 mg/kg is 106%. Also, the IC50 in assay [1] amounted to 16000 nM. In addition, the IC90 in assay [3] was 110 nM.
In the case of `C[C@H]([C@H](C)N1CC(=O)N(COC(=O)OCc2ccccc2)C(=O)C1)N1CC(=O)NC(=O)C1` (relative stereo) [Sample 19, erythro-2-(4-benzyloxycarbonyloxymethyl-3,5-dioxopiperazin-1-yl)-3-(3,5-dioxopiperazin-1-yl)butane], the ILS at 2.4 mg/kg in assay [2] (daily dose 2.4 mg/kg) was 132%. Further, in assay [1], the IC50 is 11 nM. For the same molecule, in assay [3], the IC90 amounted to 0.09 nM.
`C[C@H]([C@H](C)N1CC(=O)N(COC(=O)OCc2ccc([N+](=O)[O-])cc2)C(=O)C1)N1CC(=O)N(COC(=O)OCc2ccc([N+](=O)[O-])cc2)C(=O)C1` [Sample 8, meso-2,3-bis[4-(4-nitrobenzyloxycarbonyloxymethyl)-3,5-dioxopiperazin-1-yl]butane]: in assay [1], the IC50 came to 150 nM.
In the case of `CC(C(C)N1CC(=O)N(COC(=O)C=Cc2cccc(Cl)c2)C(=O)C1)N1CC(=O)NC(=O)C1` (stereo not drawn) [Sample 12, erythro-2-[4-(3-chlorocinnamoyloxymethyl)-3,5-dioxopiperazin-1-yl]-3-(3,5-dioxopiperazin-1-yl)butane], the ILS at 2.5 mg/kg in assay [2] stood at 90%. In assay [1], the IC50 was determined as 11 nM. Moreover, the IC90 in assay [3] stood at 0.098 nM.
Turning to `CC(=O)OCN1C(=O)CN([C@H](C)[C@H](C)N2CC(=O)N(COC(C)=O)C(=O)C2)CC1=O` [Sample 1, meso-2,3-bis(4-acetoxymethyl-3,5-dioxopiperazin-1-yl)butane], in assay [2] (daily dose 1.5 mg/kg), the ILS at 1.5 mg/kg was found to be 152%. In addition, the IC50 in assay [1] amounted to 300 nM. For the same molecule, in assay [3], the IC90 is 0.089 nM.
As for `C[C@H]([C@H](C)N1CC(=O)NC(=O)C1)N1CC(=O)NC(=O)C1` [Sample B, meso-2,3-bis(3,5-dioxopiperazin-1-yl)butane, reference compound], the IC90 in assay [3] came out at 5.3 nM.
As to `C[C@H]([C@H](C)N1CC(=O)N(COC(=O)COc2ccc(Cl)cc2Cl)C(=O)C1)N1CC(=O)N(COC(=O)COc2ccc(Cl)cc2Cl)C(=O)C1` [Sample 3, meso-2,3-bis[4-(2,4-dichlorophenoxyacetoxymethyl)-3,5-dioxopiperazin-1-yl]butane], the IC50 in assay [1] was 71 nM.
As to `C[C@H]([C@H](C)N1CC(=O)N(COC(=O)Cc2ccccc2Cl)C(=O)C1)N1CC(=O)N(COC(=O)Cc2ccccc2Cl)C(=O)C1` [Sample 2, meso-2,3-bis[4-(2-chlorophenylacetoxymethyl)-3,5-dioxopiperazin-1-yl]butane], the ILS at 3.4 mg/kg in assay [2] (daily dose 3.4 mg/kg) turned out to be 107%. Moreover, the IC50 in assay [1] stood at 8.6 nM.
